According to ChEMBL document CHEMBL1799998, “Exploration of antimicrobial and antioxidant potential of newly synthesized 2,3-disubstituted quinazoline-4(3H)-ones” (Bioorg Med Chem Lett, 2011):

Experiments:
Format in all cases: functional
Bacillus subtilis = assay: Antimicrobial activity against Bacillus subtilis after 24 hrs by disc diffusion method; also: test concentration or dose not given here
[1] = test system: Radical scavenging activity; assay: Antioxidant activity against DPPH free radical assessed as compound able to consume half the initial amount of DPPH free radical after 30 to 60 mins by spectrophotometry
Pseudomonas aeruginosa = assay: Antimicrobial activity against Pseudomonas aeruginosa after 24 hrs by disc diffusion method; also: test concentration or dose not given here
Escherichia coli = assay: Antimicrobial activity against Escherichia coli after 24 hrs by disc diffusion method; also: test concentration or dose not given here
[2] = test system: Radical scavenging activity; assay: Antioxidant activity against DPPH free radical assessed as compound able to consume half the initial amount of DPPH free radical by spectrophotometry; conditions: TDE = time-dependent effect
Staphylococcus aureus = assay: Antimicrobial activity against Staphylococcus aureus after 24 hrs by disc diffusion method; also: test concentration or dose not given here

Row | IC50 [1] [µM] | Compound | inhibition zone (IZ) (Bacillus subtilis) [mm] | Activity [1] | inhibition zone (IZ) (Pseudomonas aeruginosa) [mm] | inhibition zone (IZ) (Escherichia coli) [mm] | Activity [2] | inhibition zone (IZ) (Staphylococcus aureus) [mm]
1 | 8.6 | CC1=NC(=S)N(n2c(CCl)nc3ccccc3c2=O)C(=O)C1/N=N/c1ccc(O)c([N+](=O)[O-])c1 (centres undefined) | 20 | Dose-dependent effect | 12 | 14 | tde | 29
2 | 1.4 | CC1=NC(=S)N(n2c(CCl)nc3ccccc3c2=O)C(=O)C1/N=N/c1ccc(O)c(O)c1 (centres undefined) | 27 | Dose-dependent effect | 16 | 17.5 | tde | 31.5
3 | 3 | COc1ccc(/N=N/C2C(=O)N(n3c(CCl)nc4ccccc4c3=O)C(=S)N=C2C)cc1O (centres undefined) | 42.1 | Dose-dependent effect | 28 | 30 | tde | 47.5
4 | 2.1 | CC1=NC(=S)N(n2c(CCl)nc3ccccc3c2=O)C(=O)C1/N=N/c1ccc(O)cc1O (centres undefined) | 24.5 | Dose-dependent effect | 13.5 | 15.5 | tde | 30

Further lines, the molecule ahead of its results:

Row | Compound | IC50 [1] [µM] | inhibition zone (IZ) (Bacillus subtilis) [mm] | Activity [1] | inhibition zone (IZ) (Pseudomonas aeruginosa) [mm] | inhibition zone (IZ) (Escherichia coli) [mm] | Activity [2] | inhibition zone (IZ) (Staphylococcus aureus) [mm]
5 | O=C1O[C@H]([C@@H](O)CO)C(O)=C1O [ASCORBIC ACID] | 9.2 | – | – | – | – | – | –
6 | CC1(C)S[C@@H]2[C@H](NC(=O)[C@H](N)c3ccccc3)C(=O)N2[C@H]1C(=O)O [AMPICILLIN] | – | 40 | – | 20 | 28 | – | 36
7 | CC1=NC(=S)N(n2c(CCl)nc3ccccc3c2=O)C(=O)C1/N=N/c1cccc(Cl)c1O (centres undefined) | 8.3 | 31.5 | Dose-dependent effect | 21.5 | 20.9 | tde | 33.5
8 | CC1=NC(=S)N(n2c(CCl)nc3ccccc3c2=O)C(=O)C1/N=N/c1ccc(Cl)cc1O (centres undefined) | 7 | 29 | Dose-dependent effect | 18.5 | 20.5 | tde | 33
9 | CC1=NC(=S)N(n2c(CCl)nc3ccccc3c2=O)C(=O)C1/N=N/c1ccc(C)cc1O (centres undefined) | 5.1 | 33 | Dose-dependent effect | 22 | 25 | tde | 39
10 | CC1=NC(=S)N(n2c(CCl)nc3ccccc3c2=O)C(=O)C1/N=N/c1cccc(C)c1O (centres undefined) | 3.5 | 36.5 | Dose-dependent effect | 23.5 | 27.5 | tde | 44.5
11 | CC1=NC(=S)N(n2c(CCl)nc3ccccc3c2=O)C(=O)C1/N=N/c1ccccc1 (centres undefined) | – | 16.2 | Dose-dependent effect | 7 | 11.5 | tde | 24.5
12 | CC1=NC(=S)N(n2c(CCl)nc3ccccc3c2=O)C(=O)C1/N=N/c1ccc(O)cc1 (centres undefined) | 5.4 | 18.5 | Dose-dependent effect | 10 | 13.5 | tde | 27
